In article PMC10099595, “Multimodal 4-arylchromene derivatives with microtubule-destabilizing, anti-angiogenic, and MYB-inhibitory activities” (Cancer Drug Resistance, 2023):
Where two headings read alike, the source gives them in different places.

Tests used:
[1] = tested on: HCT-116 p53-/- colon carcinoma cells; assay: MTT antiproliferative assay, HCT-116 p53-/-; format: cell-based; conditions: Homo sapiens, 72 h
Description: (§1) The following cell lines were used: 518A2 melanoma (Department of Radiotherapy, Medical University of Vienna, Austria)[15], HeLa cervix carcinoma, KBV1^Vbl (ACC-149 cervix carcinoma, MCF7 [ACC-115]) breast carcinoma, U-87 glioblastoma, HT-29 (ACC-299), HCT-116 (ACC-581) and HCT-116p53-/- colon carcinoma, EA.hy926 (ATCC® CRL-2922^TM) endothelial hybrid cells, and HDFa (ATCC® PCS-201-012^TM) adult human dermal fibroblasts. […] Only mycoplasma-free cultures were used.

518A2 melanoma cells [2] = assay: MTT antiproliferative assay, 518A2; format: cell-based; conditions: Homo sapiens, 72 h
Description: as §1

[3] = tested on: HT-29 colon carcinoma cells; assay: MTT antiproliferative assay, HT-29; format: cell-based; conditions: Homo sapiens, 72 h
Description: as §1

[4] = tested on: tested cancer and hybrid cell lines; assay: MTT assay, average over all tested cancer and hybrid cell lines
Description: An 3-(4, 5-dimethylthiazol-2-yl)-2, 5-diphenyl tetrazolium bromid (MTT) assay was used for antiproliferative studies. Cancer cells (5 × 10^4 cells/mL, 100 μL/well) were placed in 96-well plates (10 × 10^4 cells/mL for HDFA and U87 cells), and the cells were incubated for 24 h at 5% CO2 and 95% humidity. Then, cells were treated with test compounds (at various concentrations) or solely with DMSO as a negative control for 72 h. Then, 12.5 μL of a 0.5% MTT solution in phosphate-buffered saline (PBS) was added to the cells, followed by incubation for 2 h at 37 °C. After centrifugation of the plates (300 × g, 5 min, 4 °C), the medium was discarded, and 25 μL of DMSO containing 10% SDS and 0.6% acetic acid was added, followed by incubation at 37 °C for at least 1 h. Formazan absorbance at λ = 570 nm was measured using a Tecan infinite F200 microplate reader and corrected for the background (λ = 630 nm). The 50% inhibitory concentration (IC50) values were calculated from dose-response curves (means ± SD, four independent experiments) compared to DMSO-treated control cells, which were set to 100%. GraphPad Prism 9 was used for curve-fitting.
The selectivity index (SI) was calculated as a measure of selectivity toward cancer cells compared to non-malignant cells.

[5] = tested on: EA.hy926 endothelial hybrid cells; assay: MTT antiproliferative assay, EA.hy926; format: cell-based; conditions: Homo sapiens, EA.hy 926, 72 h
Description: as §1

[6] = tested on: KB-V1^Vbl cervix carcinoma cells; assay: MTT antiproliferative assay, KB-V1Vbl (with or without verapamil); format: cell-based, human; conditions: for IC50: Homo sapiens, KB-V1/Vbl, MTT, 72 h, without verapamil, read-out: IC50 KB-V1^Vbl; for fold lower IC50 values combined with verapamil: KB-V1^Vbl cells, verapamil 1 µM vs none; for P-gp substrate / dependence on P-gp: inferred from KB-V1^Vbl cells with and without verapamil
Description: as §1

U-87 glioblastoma cells = assay: MTT antiproliferative assay, U87; format: cell-based; conditions: Homo sapiens, 72 h
Description: as §1

[7] = tested on: HeLa cervix carcinoma cells; assay: MTT antiproliferative assay, HeLa; format: cell-based; conditions: Homo sapiens, 72 h
Description: as §1

[8] = tested on: MCF-7 breast carcinoma cells; assay: MTT antiproliferative assay, MCF-7; format: cell-based; conditions: Homo sapiens, MCF7, 72 h
Description: as §1

518A2 melanoma cells [9] = assay: Cell-cycle analysis (FACS, propidium iodide); format: cell-based, human; conditions: 518A2 cells, 25 nM, 24 h
Description: 518A2 melanoma cells (10 × 10^4 cells/mL, 3 mL/well) were cultivated in six-well plates for 24 h. After the treatment with test compounds (10 and 25 nm), C-A4 (10 and 25 nm), or DMSO (vehicle) for an additional 24 h, the cells were trypsinized, centrifuged (300 × g, 5 min, 4 °C), and fixed in 70% EtOH for min. 24 h. For FACS measurement, cells were washed in PBS and stained with propidium iodide solution (50 µg/mL PI, 50 µg/mL RNase A in 0.1% sodium citrate) for 30 min at 37 °C. The DNA content of at least 10000 single cells was determined using a Beckmann Coulter Cytomics FC500 flow cytometer (λex = 488 nm, λem = 570 nm). CXP software (Beckman Coulter) was used to analyze the cells in the cell cycle phases (sub-G1, G1, S, G2/M).

[10] = tested on: HCT-116 colon carcinoma cells; assay: MTT antiproliferative assay, HCT-116; format: cell-based; conditions: Homo sapiens, 72 h
Description: as §1

zebrafish larvae = assay: Zebrafish angiogenesis assay (SIV area); format: in vivo; conditions: zebrafish larvae 24 hpf, 48 h treatment, 50-1000 nM
Description: Transgenic zebrafish (Tg(fli1:EGFP, casper mutant) were bred at 28 °C.[16] After fertilization, the eggs were transferred to E3-medium (5 mm NaCl, 0.17 mm KCl, 0.33 mm CaCl, 0.33 mm MgSO4, 0.01% methylene blue, pH 7.2), followed by incubation for 24 h. The chorion was manually removed, and the larvae were treated with test compounds or solvent in six-well plates (30 fish per concentration, 5 mL/well) for 48 h. The fluorescent vasculature was documented with a Leica MZ10F and Zeiss AxioCam MRrc. To quantify the angiogenesis, the sub-intestinal vein (SIV) area was measured using ImageJ and expressed as means ± SD with the control set to 100%. The significance of SIV reduction through substance treatment was assessed using one-way analysis of variance (ANOVA), *P < 0.05; **P < 0.01; ***P < 0.001; ****P < 0.0001, with Dunnett´s multiple comparison test (GraphPad Prism 9).

MYB = biological target: T1, MYB (Homo sapiens, UniProt P10242, K503R/K527R); assay: Luciferase-dependent MYB activity assay (HEK-MYB-Luc reporter cells); format: cell-based; conditions: HEK-293 reporter cells, 16 h; read-out: IC50 inhibition of MYB activity
T1 construct: expressed in transfected cells; host or cells: HEK-293 (HEK-MYB-Luc reporter cell line)
Description: Compounds were tested using the HEK-MYB-Luc reporter cell line, which allows a doxycycline-dependent induction of MYB expression and harbors an MYB-dependent luciferase reporter plasmid, as previously described. After 16 h of substance treatment (0.0001-3 µM), luciferase activities were analyzed as described.

[11] = tested on: HDFa adult human dermal fibroblasts; assay: MTT cytotoxicity assay, non-malignant HDFa; format: cell-based; conditions: 72 h, non-malignant cells
Description: as §1

[12] = Homo sapiens, read-out: Average IC50 value of the tested cancer and hybrid cell lines (Ø IC50), average of all cell lines of Table 2

T1 sequence (P10242 whole entry K503R/K527R): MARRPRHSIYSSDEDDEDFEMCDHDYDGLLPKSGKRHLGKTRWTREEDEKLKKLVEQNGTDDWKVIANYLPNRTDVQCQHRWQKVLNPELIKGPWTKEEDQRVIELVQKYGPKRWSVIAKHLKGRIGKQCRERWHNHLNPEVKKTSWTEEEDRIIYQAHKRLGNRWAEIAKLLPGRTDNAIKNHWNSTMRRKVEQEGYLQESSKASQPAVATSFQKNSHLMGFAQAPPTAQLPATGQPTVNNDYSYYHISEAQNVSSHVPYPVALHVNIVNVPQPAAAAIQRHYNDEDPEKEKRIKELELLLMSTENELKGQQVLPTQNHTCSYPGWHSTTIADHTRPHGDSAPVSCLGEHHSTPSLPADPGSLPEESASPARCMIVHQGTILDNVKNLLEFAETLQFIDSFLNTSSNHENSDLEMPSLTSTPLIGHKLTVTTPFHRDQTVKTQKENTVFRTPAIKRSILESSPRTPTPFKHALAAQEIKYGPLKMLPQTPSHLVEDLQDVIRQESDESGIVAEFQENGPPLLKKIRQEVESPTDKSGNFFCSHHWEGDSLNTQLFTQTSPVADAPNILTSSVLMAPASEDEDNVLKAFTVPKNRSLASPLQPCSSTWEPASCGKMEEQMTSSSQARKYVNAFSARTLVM

Compound | IC50 [1] [nM] | IC50 (518A2 melanoma cells [2]) [nM] | IC50 [3] [nM] | IC50 [4, 12] [nM] | IC50 [5] [nM] | IC50 [6] [nM] | IC50 (U-87 glioblastoma cells) [nM] | IC50 [7] [nM] | IC50 [8] [nM] | G2/M cell-cycle arrest (in words) (518A2 melanoma cells [9]) | IC50 [10] [nM] | effect on SIV growth (angiogenesis) (zebrafish larvae) | IC50 (MYB) [nM] | IC50 [11] [µM] | fold lower IC50 values combined with verapamil [6] [fold] | IC50 ([4]; read-out: Average IC50 value of the tested cancer and hybrid cell lines (Ø IC50), average of all cell lines of Table 2) [nM] | P-gp substrate / dependence on P-gp [6]
COc1ccc2c(c1)OC(N)=C(C#N)C2c1cc(Cl)c(OC)c(Cl)c1 (stereo not shown) [2D, 2-Amino-3-cyano-4-(3’, 5’-dichloro-4’-methoxyphenyl)-7-methoxy-4H-chromene] | 1900 ± 200 | 2100 ± 200 | 1400 ± 100 | > 500 | 1100 ± 70 | 2100 ± 100 | 3900 ± 400 | 700 ± 50 | 2400 ± 300 | only a slight increase in G2/M phase cells | 2500 ± 200 |  |  |  |  |  | 
COc1ccc2c(c1)OC(N)=C(C#N)C2c1cc(I)c(OC)c(OC)c1 (stereo not shown) [2C, 2-Amino-3-cyano-4-(3’-iodo-4’, 5’-dimethoxyphenyl)-7-methoxy-4H-chromene] | 6 ± 0.7 | 20 ± 2 | 200 ± 20 | 47 | 60 ± 5 | 60 ± 5 | 25 ± 2 | 10 ± 0.9 | 20 ± 1 |  | 70 ± 1 | no SIV decrease | 1.56 ± 0.2 | > 50 | 20 |  | 
COc1ccc2c(c1)OC(N)=C(C#N)C2c1ccc(F)c(Cl)c1 (stereo not shown) [2J, 2-Amino-3-cyano-4-(3’-chloro-4’-fluorophenyl)-7-methoxy-4H-chromene] | 400 ± 40 | 400 ± 10 | 500 ± 50 | 396 | 400 ± 20 | 300 ± 20 | 1200 ± 70 | 100 ± 6 | 150 ± 20 |  | 300 ± 30 |  |  |  |  | > 500 | substrate of P-gp
COc1ccc2c(c1)OC(N)=C(C#N)C2c1cc(Br)c(OC)c(OC)c1 (stereo not shown) [2B] | 30 ± 3 | 6 ± 0.2 | 200 ± 20 | 49 | 0.8 ± 0.09 | 10 ± 1 | 80 ± 5 | 2 ± 0.2 | 100 ± 8 |  | 100 ± 10 | no SIV decrease | 1.28 ± 0.3 | > 50 | 14 |  | 
COc1ccc2c(c1)OC(N)=C(C#N)C2c1ccc(F)cc1F (stereo not shown) [2L, 2-Amino-3-cyano-4-(2’, 4’-difluorophenyl)-7-methoxy-4H-chromene] | 1600 ± 160 | 500 ± 30 | 500 ± 50 | > 500 | 200 ± 10 | 3800 ± 400 | 5100 ± 500 | 1500 ± 70 | > 50000 |  | 2500 ± 40 |  |  |  |  |  | 
COc1ccc2c(c1)OC(N)=C(C#N)C2c1cc(F)cc(F)c1 (stereo not shown) [2O] | 40 ± 3 | 60 ± 6 | 70 ± 8 | 203 | 40 ± 1 | 20 ± 2 | 100 ± 10 | 40 ± 4 | 400 ± 60 |  | 1400 ± 50 |  |  |  |  |  | no dependence on P-gp
COc1ccc2c(c1)OC(N)=C(C#N)C2c1ccc(Cl)c(Cl)c1 (stereo not shown) [2K, 2-Amino-3-cyano-4-(3’, 4’-dichlorophenyl)-7-methoxy-4H-chromene] | 800 ± 20 | 600 ± 7 | 1900 ± 100 | > 500 | 600 ± 80 | 1300 ± 100 | 8500 ± 300 | 800 ± 70 | 1000 ± 50 |  | 300 ± 10 |  |  |  |  |  | 
COc1ccc2c(c1)OC(N)=C(C#N)C2c1ccc(F)c(F)c1 (stereo not shown) [2I, 2-Amino-3-cyano-4-(3’, 4’-difluorophenyl)-7-methoxy-4H-chromene] | 600 ± 6 | 700 ± 5 | 800 ± 30 |  | 700 ± 10 | 700 ± 30 | 3600 ± 500 | 600 ± 30 | 700 ± 100 |  | 800 ± 6 |  |  |  | 12 |  | 
COc1ccc2c(c1)OC(N)=C(C#N)C2c1cc(F)ccc1F (stereo not shown) [2N, 2-Amino-3-cyano-4-(2’, 5’-difluorophenyl)-7-methoxy-4H-chromene] | 200 ± 10 | 90 ± 60 | 400 ± 30 | > 500 | 4700 ± 900 | 700 ± 70 | 500 ± 100 | 200 ± 20 | 300 ± 7 |  | 500 ± 50 |  |  |  |  |  | P-gp substrates
COc1ccc2c(c1)OC(N)=C(C#N)C2c1ccccc1F (stereo not shown) [2G, 2-Amino-3-cyano-4-(2’-fluorophenyl)-7-methoxy-4H-chromene] | 300 ± 40 | 700 ± 40 | 200 ± 10 | > 500 | 900 ± 90 | 700 ± 20 | 3200 ± 100 | 400 ± 60 | 500 ± 40 |  | 200 ± 20 |  |  |  |  |  | 
COc1ccc2c(c1)OC(N)=C(C#N)C2c1cccc(S(F)(F)(F)(F)F)c1 (stereo not shown) [2Q, 2-Amino-3-cyano-4-(3’-pentafluorothiophenyl)-7-methoxy-4H-chromene] | 2900 ± 10 | 300 ± 10 | 400 ± 30 | > 500 | 600 ± 20 | 1900 ± 100 | 900 ± 60 | 400 ± 4 | 800 ± 30 |  | 700 ± 40 |  |  |  |  |  | 
COc1ccc2c(c1)OC(N)=C(C#N)C2c1cc(F)c(F)c(F)c1 (stereo not shown) [2P, 2-Amino-3-cyano-4-(3’, 4’, 5’-trifluorophenyl)-7-methoxy-4H-chromene] | 300 ± 20 | 300 ± 30 | 200 ± 5 | 330 | 400 ± 40 |  | 1100 ± 90 | 100 ± 20 | 400 ± 50 |  | 300 ± 20 |  |  |  |  |  | no dependence on P-gp
COc1ccc2c(c1)OC(N)=C(C#N)C2c1cccc([N+](=O)[O-])c1 (stereo not shown) [2R] | 200 ± 20 | 30 ± 2 | 200 ± 20 | 227 | 300 ± 9 | 30 ± 0.4 | 900 ± 50 | 300 ± 20 | 10 ± 0.8 |  | 300 ± 30 |  |  |  |  |  | 
COc1ccc2c(c1)OC(N)=C(C#N)C2c1cccc(F)c1F (stereo not shown) [2M, 2-Amino-3-cyano-4-(2’, 3’-difluorophenyl)-7-methoxy-4H-chromene] | 200 ± 8 | 300 ± 10 | 200 ± 20 | 330 | 400 ± 10 | 900 ± 90 | 400 ± 60 | 90 ± 2 | 200 ± 30 |  | 500 ± 50 |  |  |  |  |  | P-gp substrates
